Each structure is given as a SMILES string.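 Tested at 5 concentrations; 48 h exposure; 96-well plates; endpoints linearly interpolated, else capped at highest concentration. GI50 is the concentration that inhibits growth by half.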 Calls of active or inactive are those of the source. Cut-off read from the data, not from the text of the source: active = GI50 up to about 1.1 µM and inactive = higher. Where only a bound is given, the exact number is not on record here.

Test systems include LXFL 529; RXF 631; SNB-78; XF498; BT-549; MCF7; MDA-MB-231; MDA-MB-435; MDA-N.
Common to all, as to assay: inhibition of tumour cell growth, NCI panel, 48 h

On to `COc1ccc(C2C(N)=NCC2c2ccccn2)cc1` (stereo not drawn), for which the GI50 with LXFL 529, in the assay on RXF 631, with SNB-78 and with XF498 was > 100 µM (inactive) throughout.

With `Cc1c(N2C(=O)CS(=O)(=O)C2c2cccc(Oc3ccccc3)c2)c(=O)n(-c2ccccc2)n1C` (stereo not drawn), the GI50 in the assay with BT-549 is 29.5 µM (inactive); in the assay with MCF7, 36.9 µM (inactive); with MDA-MB-231 it was > 100 µM (inactive); with MDA-MB-435 it was 36.9 µM (inactive); in the assay on MDA-N it was 24.8 µM (inactive).

As to `NC(=S)N/N=C1\C(=O)Nc2c(Cl)cc(Cl)cc21`, the GI50 was 21 µM (inactive) in the assay with BT-549; 28 µM (inactive) with MCF7; 22.9 µM (inactive) with MDA-MB-231; 16.7 µM (inactive) with MDA-MB-435; 17.4 µM (inactive) in the assay with MDA-N.

Take `C1#Cc2ccccc2OCCOc2ccccc2C#Cc2ccccc2OCCOc2ccccc21`: the GI50 is 16.6 µM (inactive) with BT-549; > 100 µM (inactive) in the assay on MCF7; 17.7 µM (inactive) in the assay with MDA-MB-231; > 100 µM (inactive) in the assay on MDA-MB-435; > 100 µM (inactive) with MDA-N.

As to `CC12CC3(C)CC(C)(C1)CC(N=[N+]=[N-])(C2)C3`, the GI50 with LXFL 529, with RXF 631, with SNB-78 and with XF498 was > 100 µM (inactive) in each case.

Consider `Cc1[nH]c(=O)[nH]c(=O)c1/C=C/C(=O)NC(CO)C[S+]([O-])C[S+](C)[O-]` (stereo not drawn), for which the GI50 in the assay with MCF7 was 20.9 µM (inactive); in the assay with SNB-78 it was 11.7 µM (inactive); with XF498, 1.74 µM (inactive).

Consider `CN(C)C(=S)/N=c1\ss/c(=N\S(=O)(=O)c2ccccc2)n1-c1ccccc1`, for which the GI50 with LXFL 529 was 0.0481 µM (active); in the assay with RXF 631, > 100 µM (inactive); with SNB-78, 29 µM (inactive); with XF498 it was 19.5 µM (inactive).

Regarding `S=c1nc(Nc2ccc(Br)cc2)c2c3c(sc2[nH]1)CN(N1CCc2c(sc4[nH]c(=S)nc(Nc5ccc(Br)cc5)c24)C1)CC3`, the GI50 in the assay on BT-549 is > 50 µM (inactive); with MCF7, 20.3 µM (inactive); in the assay with MDA-MB-231, 17.9 µM (inactive); in the assay with MDA-MB-435, 15.2 µM (inactive); in the assay on MDA-N, 12.6 µM (inactive).

Turning to `S=c1sc2cscc2s1`, the GI50 in the assay on LXFL 529 is 20.2 µM (inactive); in the assay on RXF 631, 24.9 µM (inactive); in the assay on SNB-78, 30.5 µM (inactive); in the assay on XF498, 23.3 µM (inactive).

Regarding `COc1c(Cl)ccc(Cl)c1C(=O)NNC(=O)c1c(Cl)c(Cl)c(Cl)c(Cl)c1-c1nc2cc(C(=O)c3ccccc3)ccc2[nH]1`, the GI50 with BT-549 is 67.3 µM (inactive); in the assay on MCF7, 44.4 µM (inactive); in the assay on MDA-MB-231, 37.6 µM (inactive); in the assay with MDA-MB-435, 42.9 µM (inactive); in the assay with MDA-N it was 33.3 µM (inactive).

With `O=c1cnn(CCOCP(=O)(O)O)c(=O)[nH]1`, the GI50 in the assay with BT-549, in the assay on MCF7, with MDA-MB-231, in the assay with MDA-MB-435 and with MDA-N was > 100 µM (inactive) throughout.

For `CCn1cc(C(c2ccc(Cl)cc2)n2ccnc2)c2cc(Br)ccc21` (stereo not drawn), the GI50 was 14.8 µM (inactive) with BT-549; 10.1 µM (inactive) with MCF7; 14.8 µM (inactive) in the assay with MDA-MB-231; 13.6 µM (inactive) with MDA-MB-435; 20.1 µM (inactive) with MDA-N.

For `COc1ccc(C2=C(Cl)c3cc(OC)c(OC)cc3C2Cl)cc1` (stereo not drawn), the GI50 with BT-549 is 3.78 µM (inactive); in the assay on LXFL 529, 13.2 µM (inactive); in the assay on MCF7, 10.5 µM (inactive); in the assay with MDA-MB-231, 17.7 µM (inactive); with MDA-MB-435, 12.3 µM (inactive); in the assay on MDA-N, 10.1 µM (inactive). For the same molecule, the GI50 in the assay on SNB-78 was 17.9 µM (inactive); with XF498, < 0.01 µM (active).

`CC(=O)OCC1=C(COC(C)=O)C(=O)c2c(O)ccc(O)c2C1=O`: the GI50 is 2.55 µM (inactive) in the assay with LXFL 529 and 3.78 µM (inactive) in the assay with SNB-78.

Take `CC(=O)OCC1OC(n2cc(F)c(=O)[nH]c2=O)C(N)C(OC(C)=O)C1OC(C)=O` (stereo not drawn): the GI50 in the assay on MCF7, in the assay with SNB-78 and with XF498 was > 100 µM (inactive) in each case.

With `CCC(=O)NC(OCC1(CC)COC1)(C(F)(F)F)C(F)(F)F`, the GI50 with BT-549, in the assay with MCF7, with MDA-MB-231, with MDA-MB-435 and in the assay on MDA-N was > 100 µM (inactive) in each case.

For the molecule `CO/N=C1/c2sccc2[C@H](NC(=O)CNC(=O)OC(C)(C)C)[C@@H]1O`, the GI50 in the assay with BT-549, with MCF7, in the assay with MDA-MB-231, in the assay with MDA-MB-435 and in the assay on MDA-N was > 100 µM (inactive) each time.

Consider `O=C(Nc1nc2ncn(CCNCc3ccccc3)c2c(=O)[nH]1)c1ccccc1`, for which the GI50 with LXFL 529 is > 100 µM (inactive); in the assay with RXF 631 it was 41.5 µM (inactive); in the assay with SNB-78 it was > 100 µM (inactive).

With `CCCO[C@@H]1[C@@H](OC(C)=O)[C@@H](OC(C)=O)C(C)(C)/C=C/[C@H](C)C(=O)[C@@]2(OC(C)=O)C[C@@](C)(OC(C)=O)[C@H](OC(C)=O)[C@@H]2[C@H]2OC(=O)CC[C@@]12OC(=O)c1ccccc1`, the GI50 with BT-549 was 22.9 µM (inactive); in the assay with MCF7, 23.6 µM (inactive); in the assay with MDA-MB-231, > 25 µM (inactive); in the assay with MDA-MB-435 it was 15.2 µM (inactive); in the assay with MDA-N, 14.9 µM (inactive).

`COC(=O)c1cc(C)ccc1CC(Cc1cccc(C)c1)C(=O)OC` (stereo not drawn): the GI50 with BT-549, in the assay on MCF7, with MDA-MB-231, in the assay with MDA-MB-435 and in the assay on MDA-N was > 100 µM (inactive) each time.

In the case of `CN(C)c1ccc(/C=N/c2ccc(Oc3ccc(Cl)cc3)c(Cl)c2)cc1`, the GI50 with BT-549 is 16.6 µM (inactive); with MCF7, 42.7 µM (inactive); with MDA-MB-231, 16.5 µM (inactive); with MDA-MB-435 it was 24.2 µM (inactive); with MDA-N, 21.7 µM (inactive).

With `CCN(CC)CCNCc1cc(Cl)cc2c1OCOC2`, the GI50 in the assay with MCF7, with MDA-MB-231, with MDA-MB-435 and in the assay with MDA-N was > 10 µM (inactive) throughout.

`Cc1cc(C)c2c(n1)S(=O)(=O)N(CCCN1CCN(c3cccc(C(F)(F)F)c3)CC1)C(C(=O)c1ccccc1)=C2O`: the GI50 is 16 µM (inactive) in the assay with BT-549; 7.13 µM (inactive) with MCF7; 20.3 µM (inactive) in the assay on MDA-MB-231; 6.11 µM (inactive) in the assay on MDA-MB-435; 5.5 µM (inactive) in the assay on MDA-N.

`O=C1Nc2ccccc2Nc2ccncc21`: the GI50 with MCF7 and with SNB-78 was > 100 µM (inactive) each time.

Take `COc1ccc2[nH]c(Cl)c(/C=C3/C(=O)Nc4cc(C)c(OC)cc43)c2c1`: the GI50 in the assay on BT-549 is 3.2 µM (inactive); in the assay with MCF7 it was 3.8 µM (inactive); in the assay on MDA-MB-231, 3.81 µM (inactive); with MDA-MB-435 it was 1.23 µM (inactive); in the assay on MDA-N it was 1.58 µM (inactive).

For the molecule `O=C1CSc2sc(=S)sc2S1`, the GI50 was > 100 µM (inactive) with MCF7, > 63.7 µM (inactive) with SNB-78 and > 100 µM (inactive) in the assay with XF498.

Take `OCc1nnn2c1CCC2`: the GI50 with LXFL 529, in the assay with SNB-78 and with XF498 was > 100 µM (inactive) each time.

For `C/C=C1\NC(=O)[C@H]2CSSCCC=C[C@H](CC(=O)N[C@H](C(C)C)C(=O)N2)OC(=O)[C@H](C(C)C)NC1=O`, the GI50 was 2.22e-05 µM (active) in the assay on MCF7; 2.43e-05 µM (active) in the assay on MDA-MB-231; 1e-05 µM (active) in the assay on MDA-MB-435; 2.17e-05 µM (active) in the assay on MDA-N; 0.0446 µM (active) in the assay with SNB-78; 0.00285 µM (active) in the assay on XF498.

Regarding `C=Cc1cc2c(cc1O)CC[C@@H]1[C@@H]2CC[C@]2(C)[C@@H](O)CC[C@@H]12`, the GI50 with MDA-MB-231 was 5.33 µM (inactive); in the assay with MDA-MB-435, 1.09 µM (active); with MDA-N, 1.45 µM (inactive).

Turning to `O=C1C(c2ccc(C3=[N+]([O-])c4cc([N+](=O)[O-])ccc4C3=O)cc2)=[N+]([O-])c2cc([N+](=O)[O-])ccc21`, the GI50 in the assay with LXFL 529 was > 10 µM (inactive); in the assay with SNB-78, 8.91 µM (inactive); in the assay on XF498 it was > 10 µM (inactive).

As for `CC1=NN(C(=O)c2ccc(Cl)cc2)C(=O)C1/N=N/c1ccc(S(=O)(=O)Nc2ncccn2)cc1` (stereo not drawn), the GI50 with BT-549, in the assay on MCF7, in the assay with MDA-MB-231 and in the assay with MDA-MB-435 was > 100 µM (inactive) in each case.

The values are drawn from ChEMBL document CHEMBL1201862, “PubChem BioAssay data set” (2004).
